# Measured values: paper PMC11672299, “Conjugation of Polycationic Peptides Extends the Efficacy Spectrum of β‐Lactam Antibiotics” (Advanced Science, 2024)
# Peptide text beside a SMILES is read from it. * marks the point of attachment. X1 = CC(C)(O/N=C(\C(=O)N[C@@H]1C(=O)N2C(C(=O)[O-])=C(C[n+]3ccccc3)CS[C@H]12)c1csc(N)n1)C(=O)NCCCCCCN1C(=O)CC(*)C1=O
# Experiments:
# B. subtilis DSM 10 = experiment: microbe, parasite or virus in culture; format: cell-based; settings: DSM 10, 20 h
# Protocol: (§1) The minimum inhibitory concentration (MIC) of the β‐lactam–peptide conjugates was determined by broth microdilution as previously described.^[ [17] ^] Briefly, in cation‐adjusted MHB II medium, a twofold serial dilution of the compounds was prepared in 96‐well round‐bottom polystyrene or polypropylene microtiter plates with each well containing 50 µL. The plates were inoculated with 50 µL bacterial suspension and the final inoculum, in a total volume of 100 µL, contained 5 × 10^5 CFU mL^−1. The microplates were incubated for 20 h at 37 ± 1 °C. The lowest concentration preventing visible bacterial growth was considered the MIC value. For susceptibility testing of combinations of β‐lactamase‐inhibitors with either a β‐lactam antibiotic or a β‐lactam–peptide conjugate, fixed concentrations of the inhibitors according to the EUCAST (European Committee on Antimicrobial Susceptibility Testing) guidelines (clavulanic acid = 2 mg L^−1, avibactam = 4 mg L^−1) were used.
# PBP2A = target: T1, PBP2A (Bacillus subtilis, UniProt P54488); experiment: Gel‐based PBP affinity assay (Bocillin FL competition); format: binding; settings: B. subtilis membrane fractions, competition with Bocillin FL penicillin; compared with parent β‐lactam
# T1 construct: endogenous in cells; host or cells: B. subtilis DSM 10, extracted membrane protein fraction
# Protocol: (§2) B. subtilis DSM 10 and E. faecalis ATCC 51 299 (equal to DSM 12 956) membrane protein fractions were extracted according to the protocol of Dean et al. with minor modifications.^[ [34] ^] From a growing overnight bacterial culture, 3 L of LB (Luria‐Bertani) medium or TSB (tryptic soy broth) were inoculated with B. subtilis DSM 10 and E. faecalis ATCC 51 299, respectively, to obtain an OD600 = 0.3. The cultures were grown to an OD600 = 0.6–0.8 while shaking at 37 °C and cells were harvested by centrifugation at 4000 g for 30 min at 4 °C. The resulting pellet was washed twice with pre‐cooled PBS and resuspended in 30 mL of ice‐cooled PBS. The suspension was sonicated on ice (10 cycles of 30 s at 50% power for B. subtilis; 12 cycles of 30 s at 80% power for E. faecalis; 2 min intervals between cycles) using an Omni Ruptor 4000 ultrasonic homogenizer (Omni International, Kennesaw, GA, USA). Afterwards, the suspension was centrifuged at 7000 g for 10 min at 4 °C. The clear supernatant was transferred into a 50 mL polypropylene tube and centrifuged in a Beckman Coulter centrifuge equipped with a JA‐20 fixed‐angle rotor (Beckman Coulter, Krefeld, Germany) at 50 000 g for 1 h at 4 °C. The resulting pellet was washed with ice‐cold PBS and centrifuged a second time. The pellet was resuspended in 2 mL PBS and aliquots were stored at −80 °C. The protein content was determined using Bradford reagent (VWR International, Darmstadt, Germany) and Pierce BCA (bicinchoninic acid) protein assay kits (Thermo Fisher Scientific, Waltham, MA, USA) for membrane fractions of B. subtilis and E. faecalis, respectively.
# (§3) Each dilution was combined with B. subtilis (30 µg) or E. faecalis (15 µg) extracted membrane fractions. As reference samples, membrane fractions incubated with only PBS were prepared. Reaction mixtures were incubated for 20 min at 37 °C while shaking at 400 rpm. Next, Bocillin FL penicillin (Thermo Fisher Scientific, Waltham, MA, USA) was added to obtain a final concentration of 20 µM in the mixture. Samples were incubated for 30 min at 37 °C while shaking at 400 rpm. To denature the samples, 4× Laemmli sample buffer (Bio‐Rad Laboratories, Feldkirchen, Germany) was added, and the samples incubated for 10 min at 70 °C. Afterwards, the samples were centrifuged for 5 min at 13 000 rpm. Samples were separated by SDS‐PAGE using a 10% Tris‐glycine gel for 100 min at 180 V. The bands were visualized using a Typhoon FLA 9500 imager (GE Healthcare, Chicago, IL, USA) with excitation at 473 nm. The gel images were analyzed using ImageJ software. Brightness and contrast were adjusted to improve the signal‐to‐noise ratio and the background signal was subtracted over the whole image. Next, integrated density values of the gel bands were measured and Bocillin FL penicillin labeling of each PBP in antibiotic‐treated samples were set in proportion to the reference sample. IC50 values were calculated with GraphPad Prism software (version 8.0.1) using inhibitor versus normalized response variable slope and least‐squares fit. […] The mean was calculated using the IC50 values of at least two independent assays for each antibiotic.
# PBP5 = experiment: as above; format: binding; settings: PBPs from vancomycin‐resistant E. faecalis; compared with parent; at concentrations considerably higher than MICs
# Protocol: as §2, §3
# [1] = tested on: A. pittii Tü21‐041 (clinical isolate); experiment: microbe, parasite or virus in culture; format: cell-based; settings: 20 h
# Protocol: as §1
# [2] = tested on: C. freundii Tü21‐052 (clinical isolate); experiment: microbe, parasite or virus in culture; format: cell-based; settings: 20 h
# Protocol: as §1
# [3] = tested on: E. casseliflavus ATCC 700327; experiment: microbe, parasite or virus in culture; format: cell-based; settings: ATCC 700327, 20 h
# Protocol: as §1
# [4] = tested on: E. coli Tü20‐025 (clinical isolate); experiment: microbe, parasite or virus in culture; format: cell-based; settings: Tü20‐025 (clinical isolate, 20 h)
# Protocol: as §1
# E. faecalis ATCC 29212 = experiment: microbe, parasite or virus in culture; format: cell-based; settings: ATCC 29212, 20 h
# Protocol: as §1
# [5] = tested on: K. pneumoniae Tü20‐036 (clinical isolate); experiment: microbe, parasite or virus in culture; format: cell-based; settings: Tü20‐036 (clinical isolate, 20 h)
# Protocol: as §1
# A. bohemicus DSM 100419 = experiment: MIC by broth microdilution; format: cell-based; settings: median (n = 3)
# Protocol: as §1
# PBPs of B. subtilis = experiment: Gel‐based PBP affinity assay (Bocillin FL competition); format: binding; settings: at the concentrations tested (0.016–250 µM)
# Protocol: as §2, §3
# T1 sequence (P54488 whole entry): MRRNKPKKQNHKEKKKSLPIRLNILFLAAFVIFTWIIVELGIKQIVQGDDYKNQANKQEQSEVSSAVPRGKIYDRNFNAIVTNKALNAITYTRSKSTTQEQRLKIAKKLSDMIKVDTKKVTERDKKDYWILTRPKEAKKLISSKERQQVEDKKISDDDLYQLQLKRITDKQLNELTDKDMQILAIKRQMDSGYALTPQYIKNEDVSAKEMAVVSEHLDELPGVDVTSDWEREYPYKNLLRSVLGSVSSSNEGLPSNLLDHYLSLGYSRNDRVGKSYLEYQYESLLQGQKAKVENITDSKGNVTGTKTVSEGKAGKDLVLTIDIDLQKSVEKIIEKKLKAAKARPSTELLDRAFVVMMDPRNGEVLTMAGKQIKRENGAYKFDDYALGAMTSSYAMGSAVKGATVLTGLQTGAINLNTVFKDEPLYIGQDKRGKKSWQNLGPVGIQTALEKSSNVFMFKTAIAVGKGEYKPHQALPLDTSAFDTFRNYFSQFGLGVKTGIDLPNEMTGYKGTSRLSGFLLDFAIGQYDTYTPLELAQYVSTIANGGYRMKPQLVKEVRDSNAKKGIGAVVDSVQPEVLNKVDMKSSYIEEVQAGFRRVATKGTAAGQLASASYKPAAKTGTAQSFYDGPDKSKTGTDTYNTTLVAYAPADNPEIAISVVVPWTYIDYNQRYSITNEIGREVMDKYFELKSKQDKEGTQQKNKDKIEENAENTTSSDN
structure (smiles),measurement,setting,value
C[C@H]1[C@H](NC(=O)/C(=N\OC(C)(C)C(=O)NCCCCCCN2C(=O)CC(SC[C@H](NC(=O)[C@H](CCCNC(=N)N)NC(=O)[C@H](CCCNC(=N)N)NC(=O)[C@H](CCCNC(=N)N)NC(=O)[C@H](CCCNC(=N)N)NC(=O)[C@H](CCCNC(=N)N)NC(=O)[C@@H](N)CCCNC(=N)N)C(N)=O)C2=O)c2csc(N)n2)C(=O)N1S(=O)(=O)O (stereo partly drawn) [AZT-R6],MIC,B. subtilis DSM 10,0.06 µg/mL
same,affinity to PBP2A,PBP2A,higher affinity
same,binding to PBP5,PBP5,slightly improved binding
N=C(N)NCCC[C@H](NC(=O)[C@H](CCCNC(=N)N)NC(=O)[C@H](CCCNC(=N)N)NC(=O)[C@H](CCCNC(=N)N)NC(=O)[C@H](CCCNC(=N)N)NC(=O)[C@@H](N)CCCNC(=N)N)C(=O)N[C@@H](CSC1CC(=O)N(CCCCCCN)C1=O)C(N)=O (stereo partly drawn) [BB linker‐R6],MIC,[1],>64 µg/mL
same,MIC,B. subtilis DSM 10,>64 µg/mL
same,MIC,[2],>64 µg/mL
same,MIC,[3],>64 µg/mL
same,MIC,[4],>64 µg/mL
same,MIC,E. faecalis ATCC 29212,>64 µg/mL
same,MIC,[5],>64 µg/mL
CC(C)(O/N=C(\C(=O)N[C@@H]1C(=O)N2C(C(=O)[O-])=C(C[n+]3ccccc3)CS[C@H]12)c1csc(N)n1)C(=O)NCCCCCCN1C(=O)CC(SC[C@H](NC(=O)[C@H](CCCCN)NC(=O)[C@H](CCCCN)NC(=O)[C@H](CCCCN)NC(=O)[C@H](CCCCN)NC(=O)[C@H](CCCCN)NC(=O)[C@H](CCCCN)NC(=O)[C@H](CCCCN)NC(=O)[C@H](CCCCN)NC(=O)[C@@H](N)CCCCN)C(N)=O)C1=O (stereo partly drawn) [CTZ-K9] (H-KKKKKKKKKC(X1)-NH2; N-terminus and C-terminus assumed),antimicrobial activity (rank among CTZ–peptide conjugates),A. bohemicus DSM 100419,most potent conjugates
N=C(N)NCCC[C@H](NC(=O)[C@H](CCCNC(=N)N)NC(=O)[C@H](CCCNC(=N)N)NC(=O)[C@H](CCCNC(=N)N)NC(=O)[C@H](CCCNC(=N)N)NC(=O)[C@@H](N)CCCNC(=N)N)C(=O)N[C@@H](CS)C(N)=O [R6C],MIC,B. subtilis DSM 10,> 64 µg/mL
same,MIC,[3],> 64 µg/mL
same,MIC,E. faecalis ATCC 29212,> 64 µg/mL
same,binding to the PBPs of B. subtilis,PBPs of B. subtilis,not observed
